Results from patent US9783530B2, “Factor Xla inhibitors” (Merck Sharp & Dohme Corp., priority 2014, dated 2017).

What was measured:
[1] = target: purified human Factor XIa (Homo sapiens (Human), UniProt P03951); assay: Factor XIa Assay; format: biochemical; settings: purified human Factor XIa 40 pM, substrate Z-Gly-Pro-Arg-AFC, pH 7.4; read-out: FXIa IC50
Experimental: The effectiveness of a compound of the present invention as an inhibitor of Coagulation Factor XIa can be determined using a relevant purified serine protease, and an appropriate synthetic substrate. The rate of hydrolysis of the chromogenic or fluorogenic substrate by the relevant serine protease was measured both in the absence and presence of compounds of the present invention. Assays were conducted at room temperature or at 37° C. […] A decrease in the rate of fluorescence change in the presence of inhibitor is indicative of enzyme inhibition. Such methods are known to one skilled in the art. […]
Factor XIa determinations were made in 50 mM HEPES buffer at pH 7.4 containing 150 mM NaCl, 5 mM CaCl2, and 0.1% PEG 8000 (polyethylene glycol; JT Baker or Fisher Scientific). Determinations were made using purified human Factor XIa at a final concentration of 40 pM (Sekisui Diagnostics) and he synthetic substrate, Z-Gly-Pro-Arg-AFC, TFA salt (Sigma #C0980) at a concentration of 100 µM.
Activity assays were performed by diluting a stock solution of substrate at least tenfold to a final concentration ≦0.1 Km into a solution containing enzyme or enzyme equilibrated with inhibitor. Times required to achieve equilibration between enzyme and inhibitor were determined in control experiments. Initial velocities of product formation in the absence (Vo) or presence of inhibitor (Vi) were measured. Assuming competitive inhibition, and that unity is negligible compared Km/[S], [I]/e, and [I]/e (where [S], [I], and e respectively represent the total concentrations, of substrate, inhibitor and enzyme), the equilibrium constant (Ki) for dissociation of the inhibitor from the enzyme can be obtained from the dependence of Vo/Vi on [I] shown in the following equation.

[2] = target: purified Human plasma kallikrein (Homo sapiens (Human), UniProt P03952); assay: Kallikrein Assay; format: biochemical; settings: purified Human plasma kallikrein 0.5 nM, substrate Acetyl-K-P-R-AFC, pH 7.4; read-out: P. KLK IC50
Experimental: The effectiveness of a compound of the present invention as an inhibitor of Kallikrein can be determined using a relevant purified serine protease, and an appropriate synthetic substrate. The rate of hydrolysis of the chromogenic or fluorogenic substrate by the relevant serine protease was measured both in the absence and presence of compounds of the present invention. Assays were conducted at room temperature or at 37° C. […] A decrease in the rate of fluorescence change in the presence of inhibitor is indicative of enzyme inhibition. Such methods are known to one skilled in the art. The results of this assay are expressed as the inhibitory constant, Ki.
Kallikrein determinations were made in 50 mM HEPES buffer at pH 7.4 containing 150 mM NaCl, 5 mM CaCl2, and 0.1% PEG 8000 (polyethylene glycol; Fisher Scientific). Determinations were made using purified Human plasma kallikrein at a final concentration of 0.5 nM (Enzyme Research Laboratories) and the synthetic substrate, Acetyl-K-P-R-AFC (Sigma # C6608) at a concentration of […].
Activity assays were performed by diluting a stock solution of substrate at least tenfold to a final concentration ≦0.2 Km into a solution containing enzyme or enzyme equilibrated with inhibitor. Times required to achieve equilibration between enzyme and inhibitor were determined in control experiments. The reactions were performed under linear progress curve conditions and fluorescence increase measured at 405 Ex/510 Em nm. Values were converted to percent inhibition of the control reaction (after subtracting 100% Inhibition value). IC50 was determined by inflection point from a four parameter logistic curve fit. Ki was calculated using the Cheng Prusoff equation, Ki=IC50/(1+([S]/Km)).

Sequence of purified human Factor XIa (P03951 388-625): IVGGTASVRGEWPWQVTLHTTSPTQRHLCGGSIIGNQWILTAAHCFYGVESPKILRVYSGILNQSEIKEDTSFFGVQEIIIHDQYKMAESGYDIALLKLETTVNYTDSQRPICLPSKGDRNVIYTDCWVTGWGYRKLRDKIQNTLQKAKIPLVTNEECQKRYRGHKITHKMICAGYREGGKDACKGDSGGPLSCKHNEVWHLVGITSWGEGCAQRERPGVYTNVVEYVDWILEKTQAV
Sequence of purified human Factor XIa (P03951 19-387 partner): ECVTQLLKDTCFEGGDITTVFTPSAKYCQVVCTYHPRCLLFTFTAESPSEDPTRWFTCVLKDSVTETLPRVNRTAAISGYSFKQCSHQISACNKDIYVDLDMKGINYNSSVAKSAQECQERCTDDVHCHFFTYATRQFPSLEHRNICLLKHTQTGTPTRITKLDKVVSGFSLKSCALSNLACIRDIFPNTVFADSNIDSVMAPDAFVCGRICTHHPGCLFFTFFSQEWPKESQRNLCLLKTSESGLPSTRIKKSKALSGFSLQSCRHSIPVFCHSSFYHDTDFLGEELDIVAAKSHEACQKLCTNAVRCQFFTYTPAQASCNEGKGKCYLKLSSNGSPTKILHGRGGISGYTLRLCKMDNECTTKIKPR
Sequence of purified Human plasma kallikrein (P03952 391-638): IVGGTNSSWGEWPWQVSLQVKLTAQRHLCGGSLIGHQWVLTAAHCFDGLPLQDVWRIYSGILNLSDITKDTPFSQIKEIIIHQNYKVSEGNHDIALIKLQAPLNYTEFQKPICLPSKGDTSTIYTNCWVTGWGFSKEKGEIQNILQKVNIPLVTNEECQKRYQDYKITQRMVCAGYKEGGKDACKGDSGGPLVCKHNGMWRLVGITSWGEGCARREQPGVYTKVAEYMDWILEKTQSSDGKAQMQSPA
Sequence of purified Human plasma kallikrein (P03952 20-390 partner): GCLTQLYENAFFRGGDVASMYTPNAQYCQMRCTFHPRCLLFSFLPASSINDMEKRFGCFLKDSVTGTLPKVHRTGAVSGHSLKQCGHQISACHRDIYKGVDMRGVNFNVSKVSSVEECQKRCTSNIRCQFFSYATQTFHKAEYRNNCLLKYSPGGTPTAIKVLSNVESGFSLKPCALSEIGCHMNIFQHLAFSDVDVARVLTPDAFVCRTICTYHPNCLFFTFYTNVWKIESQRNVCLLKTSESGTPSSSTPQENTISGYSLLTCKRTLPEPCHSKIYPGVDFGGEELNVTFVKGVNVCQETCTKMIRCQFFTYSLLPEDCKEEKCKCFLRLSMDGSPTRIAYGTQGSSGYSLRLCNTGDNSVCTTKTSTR

IC50 [1] [µM]	IC50 [2] [µM]	SMILES
2.51	–	O=C(O)c1ccc(NC(=O)C(O)c2ccc(-c3cc(Cl)ccc3C3CC3)c[n+]2[O-])cc1 (racemic) [Example 11, 4-({[5-(5-chloro-2-cyclopropylphenyl)-1-oxidopyridin-2-yl](hydroxy)acetyl}amino)benzoic acid]
0.135	–	O=C(O)c1ccc(NC(=O)C(CC2CC2)c2ccc(-c3c(F)ccc(Cl)c3F)c[n+]2[O-])cc1 (racemic) [Example 33, 4-({2-[5-(3-chloro-2,6-difluorophenyl)-1-oxidopyridin-2-yl]-3-cyclopropylpropanoyl}amino)benzoic acid]
0.0945	–	Cc1cc(NC(=O)C(CC2CC2)c2ccc(-c3cc(Cl)ccc3-c3cnco3)c[n+]2[O-])ccc1C(=O)O (racemic) [Example 36, 4-[(2-{5-[5-chloro-2-(1,3-oxazol-5-yl)phenyl]-1-oxidopyridin-2-yl}-3-cyclopropylpropanoyl)amino]-2-methyl-benzoic acid]
0.228	–	Cc1cc(NC(=O)C(CC2CC2)c2ccc(-c3cc(Cl)ccc3CN)c[n+]2[O-])ccc1C(=O)O (racemic) [Example 37, 4-[(2-{5-[2-(aminomethyl)-5-chlorophenyl]-1-oxidopyridin-2-yl}-3-cyclopropylpropanoyl)amino]-2-methylbenzoic acid]
–	0.363	O=C(O)c1ccc(NC(=O)C(CC2CC2)c2ccc(-c3cc(Cl)ccc3-n3cc(C(F)F)nn3)c[n+]2[O-])cc1 (racemic) [Example 41, 4-{[2-(5-{5-chloro-2-[4-(difluoromethyl)-1H-1,2,3-triazol-1-yl]phenyl}-1-oxidopyridin-2-yl)-3-cyclopropylpropanoyl]amino}benzoic acid]
0.0536	–	O=C(O)c1ccc(NC(=O)C(CC2CC2)c2ccc(-c3cc(Cl)ccc3-c3nccs3)c[n+]2[O-])cc1 (racemic) [Example 43, 4-[(2-{5-[5-chloro-2-(1,3-thiazol-2-yl)phenyl]-1-oxidopyridin-2-yl}-3-cyclopropylpropanoyl)amino]benzoic acid]
10	–	O=C(NC12CCC(C(=O)O)(CC1)CC2)C(Cc1ccccc1)c1ccc(-c2c(F)ccc(Cl)c2F)c[n+]1[O-] (single isomer, unassigned) [Example 16, 4-({2-[5-(3-chloro-2,6-difluorophenyl)-1-oxidopyridin-2-yl]-3-phenylpropanoyl}amino) bicyclo[2.2.2]octane-1-carboxylic acid]
0.271	–	O=C(NC12CCC(C(=O)O)(CC1)CC2)C(Cc1ccccc1)c1ccc(-c2cc(Cl)ccc2-n2cnnn2)c[n+]1[O-] (single isomer, unassigned) [Example 18, 4-[(2-{5-[5-chloro-2-(1H-tetrazol-1-yl)phenyl]-1-oxidopyridin-2-yl}-3-phenylpropanoyl)amino] bicyclo[2.2.2]octane-1-carboxylic acid]
1	–	COC(=O)NC12CCC(NC(=O)C(Cc3ccccc3)c3ccc(-c4cc(Cl)ccc4-n4cnnn4)c[n+]3[O-])(CC1)CC2 (single isomer, unassigned) [Example 20, methyl {4-[(2-{5-[5-chloro-2-(1H-tetrazol-1-yl)phenyl]-1-oxidopyridin-2-yl}-3-phenylpropanoyl)amino]bicyclo[2.2.2]oct-1-yl}carbamate]
0.458	–	N#Cc1ccc(Cl)c(F)c1-c1ccc(C(CC2CC2)C(=O)Nc2ccc(C(=O)O)cc2)[n+]([O-])c1 (single isomer, unassigned) [Example 29, 4-({2-[5-(3-chloro-6-cyano-2-fluorophenyl)-1-oxidopyridin-2-yl]-3-cyclopropylpropanoyl}amino)benzoic acid]
0.752	–	O=C(O)c1ccc(NC(=O)C(CC2CC2)c2ccc(-c3cc(Cl)ccc3-n3cnnn3)c[n+]2[O-])c(Cl)c1 (single isomer, unassigned) [Example 31, 3-chloro-4-[(2-{5-[5-chloro-2-(1H-tetrazol-1-yl)phenyl]-1-oxidopyridin-2-yl}-3-cyclopropylpropanoyl)amino]benzoic acid]
0.443	–	O=C(O)c1ccc(NC(=O)C(CC2CC2)c2ccc(-c3cc(Cl)ccc3-c3cnco3)c[n+]2[O-])cc1 (single isomer, unassigned) [Example 34, 4-[(2-{5-[5-chloro-2-(1,3-oxazol-5-yl)phenyl]-1-oxidopyridin-2-yl}-3-cyclopropylpropanoyl)amino]benzoic acid]
1	–	O=C(O)c1ccc(NC(=O)C(CC2CC2)c2ccc(-c3cc(Cl)ccc3OC(F)(F)F)c[n+]2[O-])cc1 (single isomer, unassigned) [Example 38, 4-[(2-{5-[5-chloro-2-(trifluoromethoxy)phenyl]-1-oxidopyridin-2-yl}-3-cyclopropylpropanoyl)amino]benzoic acid]
1	–	Cc1cc(C(=O)O)ccc1NC(=O)C(CC1CC1)c1ccc(-c2cc(Cl)ccc2-n2cnnn2)c[n+]1[O-] (single isomer, unassigned) [Example 46, 4-[(2-{5-[5-chloro-2-(1H-tetrazol-1-yl)phenyl]-1-oxidopyridin-2-yl}-3-cyclopropylpropanoyl)amino]-3-methylbenzoic acid]
0.057	–	Cc1cc(NC(=O)C(CC2CC2)c2ccc(-c3cc(Cl)ccc3-n3cnnn3)c[n+]2[O-])ccc1C(=O)O (single isomer, unassigned) [Example 49, 4-[(2-{5-[5-chloro-2-(1H-tetrazol-1-yl)phenyl]-1-oxidopyridin-2-yl}-3-cyclopropylpropanoyl)amino]-2-methylbenzoic acid]
0.825	–	O=C(O)c1ccc(NC(=O)[C@@H](Cc2ccccc2)c2ccc(-c3c(F)ccc(Cl)c3F)c[n+]2[O-])cc1 [Example 3, 4-({(2S)-2-[5-(3-chloro-2,6-difluorophenyl)-1-oxidopyridin-2-yl]-3-phenylpropanoyl}amino) benzoic acid]
2.19	–	O=C(Cc1ccc(-c2cc(Cl)ccc2C2CC2)c[n+]1[O-])Nc1ccc(C(=O)O)cc1 [Example 10, 4-({[5-(5-chloro-2-cyclopropylphenyl)-1-oxidopyridin-2-yl]acetyl}amino) benzoic acid]
0.711	–	O=C(Cc1ccc(-c2cc(Cl)ccc2OC(F)F)c[n+]1[O-])Nc1ccc(C(=O)O)cc1 [Example 12, 4-[({5-[5-chloro-2-(difluoromethoxy)phenyl]-1-oxidopyridin-2-yl}acetyl)amino] benzoic acid]
0.388	–	O=C(Cc1ccc(-c2cc(Cl)ccc2C(F)F)c[n+]1[O-])Nc1ccc(C(=O)O)cc1 [Example 13, 4-[({5-[5-chloro-2-(difluoromethyl)phenyl]-1-oxidopyridin-2-yl}acetyl)amino] benzoic acid]
0.00052	–	O=C(O)c1ccc(NC(=O)[C@H](Cc2ccccc2)c2ccc(-c3cc(Cl)ccc3-c3cnco3)c[n+]2[O-])cc1 [Example 21, 4-{[(2R)-2-{5-[5-chloro-2-(1,3-oxazol-5-yl)phenyl]-1-oxidopyridin-2-yl}-3-phenylpropanoyl]amino} benzoic acid]
0.364	–	O=C(O)c1ccc(NC(=O)[C@@H](Cc2ccccc2)c2ccc(-c3cc(Cl)ccc3-c3cnco3)c[n+]2[O-])cc1 [Example 22, 4-{[(2S)-2-{5-[5-chloro-2-(1,3-oxazol-5-yl)phenyl]-1-oxidopyridin-2-yl}-3-phenylpropanoyl]amino} benzoic acid]
0.693	–	Cc1c(-c2c(F)ccc(Cl)c2F)ccc(C(Cc2ccccc2)C(=O)Nc2ccc(C(=O)O)cc2)[n+]1[O-] (stereo not shown) [Example 26, 6-(1-((4-carboxyphenyl)amino)-1-oxo-3-phenylpropan-2-yl)-3-(3-chloro-2,6-difluorophenyl)-2-methylpyridine 1-oxide]
